Where two headings read alike, the source gives them in different places.
Columns and labels:
[1] = molecular target: T1, Wee1A kinase (CDK1 Tyr15 phosphorylation in ACHN renal cell carcinoma cells) (Homo sapiens, UniProt P30291); assay: High-content imaging of pCdk1 Y15, Wee1A kinase target engagement in ACHN cells; type: cell-based
T1 construct: pCDK1 Tyr15 immunofluorescence read-out
Outline: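 ACHN cells exposed to compound for 4 h over 7–5,000 nM or 0.3–200 nM, then fixed and immunostained for pCDK1 Y15 with DAPI nuclear counterstain. The percentage of pCdk1 Y15 nucleus-positive cells relative to DMSO control was imaged per well; EC50 from dose-response curves.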

[2] = molecular target: T2, Myt1 kinase (recombinant PMYT-1) (Homo sapiens, UniProt Q99640); assay: Myt1 kinase binding assay (LanthaScreen Eu Kinase Binding Assay)
T2 construct: full length PMYT-1 was expressed by baculovirus in insect cells; purchased Invitrogen A30984; host or cells: insect cells (baculovirus)
T2 sequence (Q99640 1-499): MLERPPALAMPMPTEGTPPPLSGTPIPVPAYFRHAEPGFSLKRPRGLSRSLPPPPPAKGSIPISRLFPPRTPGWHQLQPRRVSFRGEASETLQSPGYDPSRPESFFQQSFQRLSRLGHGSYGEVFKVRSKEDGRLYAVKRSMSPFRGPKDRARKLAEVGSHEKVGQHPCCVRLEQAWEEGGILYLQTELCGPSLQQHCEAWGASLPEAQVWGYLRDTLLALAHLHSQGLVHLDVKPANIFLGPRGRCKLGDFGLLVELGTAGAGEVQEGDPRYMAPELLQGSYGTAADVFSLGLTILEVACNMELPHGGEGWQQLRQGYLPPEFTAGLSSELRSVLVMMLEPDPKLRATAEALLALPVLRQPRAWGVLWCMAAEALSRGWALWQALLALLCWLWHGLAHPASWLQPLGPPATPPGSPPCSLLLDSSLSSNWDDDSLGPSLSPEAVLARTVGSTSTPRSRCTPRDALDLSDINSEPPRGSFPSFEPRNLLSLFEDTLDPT
Outline: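 The binding affinity of compounds for Myt1 kinase was measured with a LanthaScreen Europium (Eu) Kinase Binding Assay, a time-resolved FRET format in which test compounds compete against a labeled kinase tracer, and the results were expressed as IC50 values describing compound binding to Myt1.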

[3] = molecular target: T3, recombinant human Wee1A kinase (Homo sapiens, UniProt P30291); assay: Wee1A kinase binding assay (LanthaScreen Eu time-resolved FRET)
T3 construct: full length Wee1 kinase was expressed by baculovirus in insect cells; purchased Invitrogen PV3817; host or cells: insect cells (baculovirus)
Outline: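 Full-length, baculovirus-expressed GST-tagged Wee1A (5 nM) was mixed with 2 nM Eu-anti-GST antibody, 30 nM kinase tracer 178 and compound (1% DMSO). Buffer was 50 mM HEPES pH 7.5, 10 mM MgCl2, 1 mM EGTA, 0.01% Brij-35, incubated 60 min at room temperature. TR-FRET 665/615 nm emission ratios from duplicates were curve-fitted.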

[4] = test system: ACHN cells; assay: Cell Titer Glo viability assay, ACHN cells; type: cell-based; conditions: Homo sapiens, 144 h, absolute EC50
Protocol: Each of an ACHN renal cell carcinoma cell line (ATCC) and a DAOY medulloblastoma cell line, and an A427 lung cancer line were cultured in Minimum Essential Medium Eagle supplemented with 10% fetal calf serum (Sigma), 1% Penicillin-Streptomycin and 10 mM HEPES buffer (HyClone). Cell cultures were kept in a humidified incubator at 37 °C and 5% CO2. Cells were routinely tested for Mycoplasma contamination.
ACHN cells, DAOY cells, or A427 cells were seeded at a density of 400, 250, or 500 cells per well respectively, in tissue culture treated 384 well plates (Corning Costar). After overnight incubation, cells were treated with drugs at concentrations ranging from 17 to 10 000 nM. Viability compared to untreated control was assessed at 144 h using Cell Titer Glo assay 2.0 (Promega). […] “NT” means the compounds was not tested in the indicated cells.

[5] = 4 h treatment, nuclear positivity for pCdk1 Y15 vs DMSO control, read-out: CDK1 Tyr15 Phosphorylation EC50
[6] = 3 nM tracer 178, 2.5 nM PMYT-1, 1 nM Eu-labeled antibody, read-out: Myt1 kinase Binding IC50
[7] = 30 nM tracer 178, 5 nM Wee1A kinase, 2 nM Eu-labeled antibody, 60 minutes at room temperature, read-out: Wee1A kinase Binding IC50
[8] = read-out: CDK1 Tyr15 Phosphorylation EC50, 4 h treatment, nuclear positivity for pCdk1 Y15 vs DMSO control
[9] = Myt1 kinase Binding IC50, 3 nM tracer 178, 2.5 nM PMYT-1, 1 nM Eu-labeled antibody

T1 sequence (P30291 whole entry): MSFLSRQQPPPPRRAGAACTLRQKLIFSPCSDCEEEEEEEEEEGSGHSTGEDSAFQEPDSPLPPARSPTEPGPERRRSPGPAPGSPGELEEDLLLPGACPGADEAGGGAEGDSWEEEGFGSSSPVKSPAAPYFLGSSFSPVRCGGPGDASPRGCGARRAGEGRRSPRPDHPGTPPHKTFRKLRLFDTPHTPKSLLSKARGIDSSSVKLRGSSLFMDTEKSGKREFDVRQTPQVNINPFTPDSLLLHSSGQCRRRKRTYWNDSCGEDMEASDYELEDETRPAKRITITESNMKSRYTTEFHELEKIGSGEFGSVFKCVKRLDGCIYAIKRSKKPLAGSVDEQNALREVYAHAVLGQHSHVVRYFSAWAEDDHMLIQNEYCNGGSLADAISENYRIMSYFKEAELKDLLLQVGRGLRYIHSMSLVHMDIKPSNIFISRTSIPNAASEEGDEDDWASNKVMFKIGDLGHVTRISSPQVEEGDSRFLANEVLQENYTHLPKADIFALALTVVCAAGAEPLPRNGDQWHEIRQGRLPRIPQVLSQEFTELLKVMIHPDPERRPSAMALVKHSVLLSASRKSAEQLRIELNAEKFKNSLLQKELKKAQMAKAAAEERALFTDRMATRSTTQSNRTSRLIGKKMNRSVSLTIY
T3 sequence (P30291 whole entry): as above

With `C=CCn1c(=O)c2cnc(Nc3ccc4c(cnn4C)c3)nc2n1-c1cccc(O[C@@H]2CCCNC2)n1` [Compound 103, 6-[(1-Methyl-1H-indazol-5-yl)amino]-1-{6-[(3R)-piperidin-3-yloxy]pyridin-2-yl}-2-(prop-2-en-1-yl)-1H,2H,3H-pyrazolo[3,4-d]pyrimidin-3-one; bis(trifluoroacetic acid)] the EC50 [1, 5] was less than 0.1 µM, the IC50 [2, 6] was 0.1 to 0.5 µM and the IC50 [3, 7] was less than 0.01 µM. The EC50 [4] was 0.1 to 0.5 µM.
Compound `C=CCn1c(=O)c2cnc(Nc3ccc4c(cnn4C)c3)nc2n1-c1cccc(N[C@H]2CCN(C)C2)n1` [Compound 108, 1-{6-[(S)-1-methyl-3-pyrrolidinylamino]-2-pyridyl}-2-allyl-6-(1-methyl-1H-indazol-5-ylamino)-1,2-dihydro-3H-1,2,5,7-tetraazainden-3-one] has an EC50 [1, 5] of less than 0.1 µM, an IC50 [2, 6] of 0.02 to 0.1 µM and an IC50 [3, 7] of less than 0.01 µM. The EC50 [4] was 0.1 to 0.5 µM.
Work on `C=CCn1c(=O)c2cnc(Nc3ccnc(C)c3)nc2n1-c1cccc(OC2CCNCC2)n1` [Compound 113, 2-allyl-6-(2-methyl-4-pyridylamino)-1-[6-(4-piperidyloxy)-2-pyridyl]-1,2-dihydro-3H-1,2,5,7-tetraazainden-3-one] yielded an EC50 [1, 5] of 0.5 to 1 µM, an IC50 [2, 6] of 0.02 to 0.1 µM and an IC50 [3, 7] of less than 0.01 µM. It also gave an EC50 [4] greater than 1 µM.
In the case of `C=CCn1c(=O)c2cnc(Nc3ccc4c(cnn4C)c3)nc2n1-c1cccc(N(C)C2CCNCC2)n1` [Compound 116, 1-[6-(N-methyl-N-4-piperidylamino)-2-pyridyl]-2-allyl-6-(1-methyl-1H-indazol-5-ylamino)-1,2-dihydro-3H-1,2,5,7-tetraazainden-3-one], the EC50 [1, 8] is reported as less than 0.1 µM, the IC50 [2, 9] is reported as greater than 0.5 µM and the IC50 [3] is reported as less than 0.01 µM. It also gave an EC50 [4] of 0.1 to 0.5 µM.
`C=CCn1c(=O)c2cnc(Nc3ccc4c(cnn4C)c3)nc2n1-c1cccc(N(C)C2CCN(C)CC2)n1` [Compound 118, 1-{6-[N-methyl(1-methyl-4-piperidyl)amino]-2-pyridyl}-2-allyl-6-(1-methyl-1H-indazol-5-ylamino)-1,2-dihydro-3H-1,2,5,7-tetraazainden-3-one] was tested, and the EC50 [1, 8] was less than 0.1 µM, the IC50 [2, 9] was greater than 0.5 µM and the IC50 [3] was less than 0.01 µM. The EC50 [4] was no more than 0.1 µM.
Work on `C=CCn1c(=O)c2cnc(Nc3ccc4c(cnn4C)c3)nc2n1-c1cccc(N[C@@H]2CCN(CC)C2)n1` [Compound 119, 1-(6-{[(3R)-1-ethylpyrrolidin-3-yl]amino}pyridin-2-yl)-6-[(1-methyl-1H-indazol-5-yl)amino]-2-(prop-2-en-1-yl)-1H,2H,3H-pyrazolo[3,4-d]pyrimidin-3-one] yielded an EC50 [1, 5] of less than 0.1 µM, an IC50 [2, 6] of 0.1 to 0.5 µM and an IC50 [3, 7] of less than 0.01 µM. The EC50 [4] was no more than 0.1 µM.
With `C=CCn1c(=O)c2cnc(Nc3ccc(OC)c(C)c3)nc2n1-c1cccc(NC2CCNCC2)n1` [Compound 127, 2-allyl-6-(4-methoxy-3-toluidino)-1-[6-(4-piperidylamino)-2-pyridyl]-1,2-dihydro-3H-1,2,5,7-tetraazainden-3-one] the EC50 [1, 5] was 0.1 to 0.5 µM, the IC50 [2, 6] was 0.1 to 0.5 µM and the IC50 [3, 7] was less than 0.01 µM. The EC50 [4] was 0.5 to 1 µM.
For `C=CCn1c(=O)c2cnc(Nc3ccc(OCC(F)(F)F)cc3)nc2n1-c1cccc(NC2CCN(C)CC2)n1` [Compound 139, 2-allyl-1-[6-(1-methyl-4-piperidylamino)-2-pyridyl]-6-[p-(2,2,2-trifluoroethoxy)phenylamino]-1,2-dihydro-3H-1,2,5,7-tetraazainden-3-one], the EC50 [1, 5] was 0.1 to 0.5 µM, the IC50 [2, 6] was 0.1 to 0.5 µM and the IC50 [3, 7] was less than 0.01 µM. The EC50 [4] was 0.1 to 0.5 µM.
For `C=CCn1c(=O)c2cnc(Nc3ccc(F)c(C)c3)nc2n1-c1cccc(NC2CCN(C)CC2)n1` [Compound 140, 2-allyl-6-(4-fluoro-3-toluidino)-1-[6-(1-methyl-4-piperidylamino)-2-pyridyl]-1,2-dihydro-3H-1,2,5,7-tetraazainden-3-one], the EC50 [1, 5] was less than 0.1 µM, the IC50 [2, 6] was 0.1 to 0.5 µM and the IC50 [3, 7] was less than 0.01 µM. For the same compound, the EC50 [4] was no more than 0.1 µM.
With `C=CCn1c(=O)c2cnc(Nc3ccc(Cl)cc3)nc2n1-c1cccc(N(C)C2CCN(C)CC2)n1` [Compound 157, 6-[(4-chlorophenyl)amino]-1-{6-[methyl(1-methylpiperidin-4-yl)amino]pyridin-2-yl}-2-(prop-2-en-1-yl)-1H,2H,3H-pyrazolo[3,4-d]pyrimidin-3-one] the EC50 [1, 8] was 0.1 to 0.5 µM, the IC50 [2, 9] was greater than 0.5 µM and the IC50 [3] was less than 0.01 µM. It also gave an EC50 [4] of 0.1 to 0.5 µM.
`C=CCn1c(=O)c2cnc(Nc3cnn(C)c3)nc2n1-c1cccc(O[C@H]2CN3CCC2CC3)n1` [Compound 172, 1-{6-[(3R)-1-azabicyclo[2.2.2]octan-3-yloxy]pyridin-2-yl}-6-[(1-methyl-1H-pyrazol-4-yl)amino]-2-(prop-2-en-1-yl)-1H,2H,3H-pyrazolo[3,4-d]pyrimidin-3-one] was tested, and the EC50 [1, 8] was greater than 1 µM, the IC50 [2, 9] was greater than 0.5 µM and the IC50 [3] was less than 0.01 µM. The EC50 [4] was greater than 1 µM.
In the case of `C=CCn1c(=O)c2cnc(Nc3cnn(CCC)c3)nc2n1-c1cccc(OC2CCN(C)CC2)n1` [Compound 180, 2-allyl-1-[6-(1-methyl-4-piperidyloxy)-2-pyridyl]-6-(1-propyl-4-pyrazolylamino)-1,2-dihydro-3H-1,2,5,7-tetraazainden-3-one], the EC50 [1, 5] is reported as less than 0.1 µM, the IC50 [2, 6] is reported as 0.1 to 0.5 µM and the IC50 [3, 7] is reported as less than 0.01 µM. It also gave an EC50 [4] of no more than 0.1 µM.
Compound `C=CCn1c(=O)c2cnc(Nc3ccc(OCC(F)(F)F)c(C)c3)nc2n1-c1cccc(NC2CCN(C)CC2)n1` [Compound 181, 2-allyl-1-[6-(1-methyl-4-piperidylamino)-2-pyridyl]-6-[4-(2,2,2-trifluoroethoxy)-3-toluidino]-1,2-dihydro-3H-1,2,5,7-tetraazainden-3-one] has an EC50 [1, 5] of less than 0.1 µM, an IC50 [2, 6] of 0.1 to 0.5 µM and an IC50 [3, 7] of less than 0.01 µM. It also gave an EC50 [4] of no more than 0.1 µM.
For `C=CCn1c(=O)c2cnc(Nc3cccc(C)c3)nc2n1-c1cccc(NC2CCN(C)CC2)n1` [Compound 188, 2-allyl-1-[6-(1-methyl-4-piperidylamino)-2-pyridyl]-6-m-toluidino-1,2-dihydro-3H-1,2,5,7-tetraazainden-3-one], the EC50 [1, 5] was less than 0.1 µM, the IC50 [2, 6] was 0.1 to 0.5 µM and the IC50 [3, 7] was less than 0.01 µM. It also gave an EC50 [4] of no more than 0.1 µM.
In the case of `C=CCn1c(=O)c2cnc(Nc3cc(C)nc(C)c3)nc2n1-c1cccc(OC2CCN(C)CC2)n1` [Compound 199, 6-[(2,6-dimethylpyridin-4-yl)amino]-1-{6-[(1-methylpiperidin-4-yl)oxy]pyridin-2-yl}-2-(prop-2-en-1-yl)-1H,2H,3H-pyrazolo[3,4-d]pyrimidin-3-one], the EC50 [1, 5] is reported as less than 0.1 µM, the IC50 [2, 6] is reported as 0.1 to 0.5 µM and the IC50 [3, 7] is reported as less than 0.01 µM. It also gave an EC50 [4] of 0.1 to 0.5 µM.
In the case of `C=CCn1c(=O)c2cnc(Nc3ccc4c(cnn4C)c3)nc2n1-c1cccc(OC2CCN(C)CC2)c1` [Compound 220, 2-allyl-6-(1-methyl-1H-indazol-5-ylamino)-1-[m-(1-methyl-4-piperidyloxy)phenyl]-1,2-dihydro-3H-1,2,5,7-tetraazainden-3-one], the EC50 [1, 5] is reported as less than 0.1 µM, the IC50 [2, 6] is reported as 0.1 to 0.5 µM and the IC50 [3, 7] is reported as less than 0.01 µM. It also gave an EC50 [4] of no more than 0.1 µM.
Compound `C=CCn1c(=O)c2cnc(Nc3ccc4c(cnn4C)c3)nc2n1-c1cccc(NC2CCN(C)CC2)c1` [Compound 226, 2-allyl-6-(1-methyl-1H-indazol-5-ylamino)-1-[m-(1-methyl-4-piperidylamino)phenyl]-1,2-dihydro-3H-1,2,5,7-tetraazainden-3-one] has an EC50 [1, 5] of less than 0.1 µM, an IC50 [2, 6] greater than 0.5 µM and an IC50 [3, 7] of less than 0.01 µM. For the same compound, the EC50 [4] was 0.1 to 0.5 µM.

Reference: patent US20260364080A1, “PYRAZOLO-PYRIMIDINONE COMPOUNDS FOR USE IN METHODS OF INHIBITING WEE1 A KINASE” (Acrivon Therapeutics, Inc., priority 2023, published 2026)
